This passage reports IC50 results from patent US8637670B2, “Imidazo [4,5-C]quinoline derivatives and their use in the treatment of tumors and/or inflammation” (Piramal Enterprises Limited, priority 2009, dated 2014).

Each structure is given as a SMILES string.

Holding throughout (format): cell-based
One assay relates to PC3. The assay is described as follows: Cytotoxicity, propidium iodide assay, PC3. The conditions noted are these: Homo sapiens, PC-3; Prostate, PC3, 48 hours treatment; read-out: IC50, C2a (PC3). In a few lines:
(§1)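 Read-out: propidium iodide fluorescence after freeze-thaw, viability expressed as percent of untreated wells (100%) and IC50 derived from the plotted percentages. Cells (3000/well) were pre-incubated 18-24 hours, then treated 48 hours with serial compound dilutions in medium.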

Another assay relates to BT 549. The assay is described as follows: Cytotoxicity, propidium iodide assay, BT 549. The settings on record: Homo sapiens; Breast, BT 549, 48 hours treatment; read-out: IC50, C6d (BT 549). The method, then:
(§2) The assay was designed as in the reference, Anticancer Drugs, 2002, 13, 1-8, the disclosure of which is incorporated by reference for the teaching of the assay.
(§3) Cells from cell lines as mentioned in the table given below were seeded at a density of 3000 cells/well in a white opaque 96-well plate. Following incubation at 37° C./5% CO2 for a period of 18-24 hours, the cells were treated with various concentrations (stock solution was prepared in DMSO and subsequent dilutions were made in media as per ATCC guidelines) of the compounds of Example 1-40 was for a period of 48 hours. At the end of treatment, the spent culture medium was discarded, the cells were washed with 1×PBS and 200 μl of 7 μg/ml propidium iodide was added to each well. The plates were frozen at −70° C. for at least 24 hours. For analysis, the plates were brought to RT, allowed to thaw and were read in PoleStar fluorimeter with the fluorescence setting. The percentage of viable cells in the non-treated set of wells was considered to be 100 and the percentage viability following treatment was calculated accordingly. IC50 values were calculated from graphs plotted using these percentages. Table 4 depicts the IC50 values of compounds of Example 1-40 in individual cell lines.
(§4) The abbreviations for the Cell Lines as used in Table 4 are: […]

In another assay the test system is A2780. The experiment in a line: Cytotoxicity, propidium iodide assay, A2780. The settings on record: Homo sapiens; Ovarian, A2780, 48 hours treatment; read-out: IC50, C3a (A2780). The method in brief: as §1
For another assay, the system named is MDA MB 468. The experiment in a line: Cytotoxicity, propidium iodide assay, MDA MB 468. The settings on record: Homo sapiens; Breast, MDA MB 468, 48 hours treatment; read-out: IC50, C6b (MDA MB 468). The method, then:
as §2, §3, §4

A further assay concerns H460. The experiment in a line: Cytotoxicity, propidium iodide assay, H460. The settings on record: Homo sapiens, NCI-H460; Lung, H460, 48 hours treatment; read-out: IC50, C1b (H460). In a few lines:
as §1

The subject of a further assay is A549. The experiment in a line: Cytotoxicity, propidium iodide assay, A549. The conditions noted are these: Homo sapiens; Lung, A549, 48 hours treatment; read-out: IC50, C1a (A549). The method in brief: as §1
Another assay relates to IL-6. The assay is described as follows: Human monocyte assay, LPS-stimulated IL-6 (ELISA). The settings on record: human monocytes, 1 μg/ml LPS, 5 hours. The method in brief: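 Adherent human PBMC-derived monocytes (2×10^4/well, cultured 48 h) were pretreated with compound or 0.5% DMSO vehicle for 30 min, then stimulated with 1 μg/ml E. coli 0111:B4 LPS for 5 h at 37 °C. Supernatant IL-6 and TNF-α were measured by ELISA; IC50 by nonlinear regression, with MTS toxicity on a parallel plate.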
For orientation: In an ELISA, binding on a coated surface is turned into a signal by an enzyme label.

As a reminder, the IC50 is the concentration at which inhibition is half-maximal.

For `CC(=O)c1ccc(S(=O)(=O)n2c(=O)n(-c3ccc(C(C)(C)C#N)cc3)c3c4cc(C)ccc4ncc32)cc1` [Example 25, 2-(4-(3-(4-Acetylphenylsulfonyl)-8-methyl-2-oxo-2,3-dihydro-1H-imidazo[4,5-c]quinolin-1-yl)phenyl)-2-methylpropanenitrile], the IC50 with PC3, in the assay on BT 549, in the assay with A2780, with MDA MB 468, with H460 and in the assay on A549 was more than 3000 nM each time. The same compound had an IC50 with IL-6 of more than 30000 nM.
